Measurements as given in PubChem BioAssay (NCI).
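In this assay, cells in 96-well plates receive the compound at five concentrations for 48 hours. Endpoints are linearly interpolated between the surrounding concentrations. At the TGI there is no net growth.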

Assays:
Experiment in all cases: NCI anticancer screen, dose series, 48 h
[1] = test system: U251 CNS
[2] = test system: UO-31 renal
[3] = test system: SK-MEL-28 melanoma
[4] = test system: CAKI-1 renal
[5] = test system: SK-MEL-5 melanoma
[6] = test system: MDA-N
[7] = test system: OVCAR-3 ovarian
[8] = test system: SF-295 CNS
[9] = test system: KM12 colon
[10] = test system: HS 578T breast
[11] = test system: 786-0 renal
[12] = test system: SR leukemia
[13] = test system: UACC-257 melanoma
[14] = test system: SK-MEL-2 melanoma
[15] = test system: HCC-2998 colon
[16] = test system: T-47D breast
[17] = test system: SNB-19 CNS

| Structure (SMILES) | TGI [1] | TGI [2] | TGI [3] | TGI [4] | TGI [5] | TGI [6] | TGI [7] | TGI [8] | TGI [9] | TGI [10] | TGI [11] | TGI [12] | TGI [13] | TGI [14] | TGI [15] | TGI [16] | TGI [17] |
| --- | --- | --- | --- | --- | --- | --- | --- | --- | --- | --- | --- | --- | --- | --- | --- | --- | --- |
| COc1ccc(/C(=N/Nc2nc3ccccc3n2Cc2ccccc2)C(=O)O)cc1 | > 100 µM | 76.5 µM | > 100 µM | 45.8 µM | 37.6 µM | > 100 µM | > 100 µM | > 100 µM | > 100 µM | > 100 µM | 42.3 µM | 9.88 µM | > 100 µM | > 100 µM | 48.3 µM | 70.7 µM | > 100 µM |
| O=C1NC(=Nc2ccccc2Cl)N/C1=C\c1c(Cl)cccc1Cl | > 100 µM | 66.3 µM | > 100 µM | > 100 µM | 47.2 µM | > 100 µM | > 100 µM | > 100 µM | > 100 µM | 99 µM | > 100 µM | 48 µM | 79.8 µM | > 100 µM | 55.3 µM | 81.1 µM | > 100 µM |
| COC(=O)c1cc(C#N)[nH]c1-c1ccc(Br)s1 | 24.8 µM | 15.6 µM | 24.4 µM | > 50.7 µM | 15.3 µM | 27.9 µM | 15.9 µM | 21.1 µM | > 50 µM | 20.8 µM | 27.7 µM | > 51.9 µM | 24.9 µM | 18.6 µM | 31.8 µM | 17.2 µM | 22.3 µM |
| O=C(NCCc1ccccn1)c1ccc2cc(C(=O)N3CC(CCl)c4ccc([N+](=O)[O-])cc43)[nH]c2c1 (stereo not drawn) | > 100 µM | > 92.8 µM | > 100 µM | > 52.7 µM | > 100 µM | > 100 µM | 28.2 µM | > 68.5 µM | > 100 µM | > 100 µM | > 63 µM | > 100 µM | > 100 µM | > 100 µM | > 100 µM | > 100 µM | 87.5 µM |
| C[C@H]1[C@H]2[C@H](C[C@@]3(C)C4=CC[C@H]5C(C)(C)[C@@H](OC6OCC(O)C(O)C6O)CC[C@@]56C[C@@]46CC[C@]23C)O[C@@]2(O)[C@@H]1OC(C)(C)[C@H]2O (stereo partly drawn) | 5.5 µM | 10.2 µM | 6.23 µM | 5.57 µM | 4.71 µM | 7.48 µM | 9.61 µM | 6.47 µM | 4.12 µM | 3.7 µM | 2.76 µM | 9.01 µM | 4.7 µM | 11.5 µM | 1.45 µM | 1.81 µM | 8.4 µM |
| CC(=O)n1nc(-c2[nH]c(C)c(-c3nn(C(C)=O)c(=S)o3)c2C)oc1=S | > 100 µM | > 100 µM | > 100 µM | > 100 µM | > 100 µM | > 100 µM | > 100 µM | > 100 µM | > 100 µM | > 100 µM | > 100 µM | > 100 µM | > 100 µM | > 100 µM | > 100 µM | > 100 µM | > 100 µM |
| NC(=S)NN=Cc1ccccc1OCc1cccc(COc2ccccc2C=NNC(N)=S)n1 | 19.3 µM | > 93.5 µM | > 100 µM | > 100 µM | > 100 µM | > 100 µM | > 100 µM | 20 µM | > 100 µM | > 100 µM | > 72 µM | > 100 µM | > 100 µM | 33.7 µM | > 100 µM | > 100 µM | 46.3 µM |
| O=c1c2c3c(sc2nc2n1sc1nc4sc5c(c4c(=O)n12)CCCC5)CCCC3 | > 100 µM | 43.9 µM | > 100 µM | 36.4 µM | > 100 µM | 97.4 µM | > 62.5 µM | > 100 µM | > 100 µM | > 100 µM | 31 µM | > 84.9 µM | > 100 µM | > 100 µM | > 76.8 µM | 17.1 µM | > 100 µM |
| COC1(OC)CCCCCCCCC(OC)(OC)CCCCCCCC1 | > 100 µM | 10.9 µM | > 100 µM | > 100 µM | > 100 µM | > 100 µM | > 100 µM | > 100 µM | > 100 µM | > 100 µM | > 100 µM | > 100 µM | > 100 µM | > 100 µM | > 100 µM | > 100 µM | > 100 µM |
